Source: patent US8680259B2, “Method and compositions for the identification of agents that have a potential effect against chronic inflammatory diseases” (Universität Leipzig, priority 2010, dated 2014)

Experiments:
primary CD14+ monocytes = experiment: IL-1β production of monocytes stimulated with increased extracellular Ca2+ plus TLR ligand; format: cell-based, human
Procedure: FIGS. 3c and 3d show IL-1β release of primary CD14^+ monocytes in response to increasing extracellular calcium concentration alone (c) or to increased [Ca^2+] in combination with LPS (100 ng/ml) (d) after 16 h of stimulation. The bar underneath the x axis represents the physiological range of the extracellular ionized Ca^2+ concentration (1.2 mM).
The following TLR ligands (human TLR1-9 Agonist Kit, InvivoGen) were used at the following concentrations: TLR1/2 agonist—Pam3CSK4 (1 μg/ml), TLR2 agonist—heat-killed preparation of Listeria monocytogenes (10^8 cells/ml), TLR3 agonist—Poly(I:C) (10 μg/ml), TLR4 agonist—E. coli K12 LPS (100 ng/ml), TLR5 agonist—S. typhimurium flagellin (1 μg/ml), TLR6/2 agonist—FSL1 (1 μg/ml), TLR7 agonist—Imiquimod (1 μg/ml), TLR8 agonist—ssRNA40 (1 μg/ml) and TLR9 agonist—CpG ODN2006 (5 μM). […]
In all experiments shown in FIGS. 3 and 4, IL-1β concentrations were determined in the supernatant by ELISA.
Human and murine IL-1β were measured by commercially available enzyme-immunoassay following the manufacturer's protocol. […]
LPS (Escherichia coli 0111:B4 ultrapure, 100 ng/ml, Invivogen) was used at a concentration of 100 ng/ml. […] Final Ca^2+ ion concentrations in the media were measured after anaerobic sampling (sealed blood gas syringes were completely filled under an CO2 atmosphere, and were closed with caps to avoid loss of CO2) on an ABL 730 (Radiometer). […]

GPRC6A = GPRC6A (Mus musculus, UniProt Q8K4Z6); settings: wild type mice; Aluminum Lactate 0.3 mg/100 ml with Carrageenan 1 g/100 ml vs Carrageenan alone; p<0.001
Chain of GPRC6A (Q8K4Z6 21-928): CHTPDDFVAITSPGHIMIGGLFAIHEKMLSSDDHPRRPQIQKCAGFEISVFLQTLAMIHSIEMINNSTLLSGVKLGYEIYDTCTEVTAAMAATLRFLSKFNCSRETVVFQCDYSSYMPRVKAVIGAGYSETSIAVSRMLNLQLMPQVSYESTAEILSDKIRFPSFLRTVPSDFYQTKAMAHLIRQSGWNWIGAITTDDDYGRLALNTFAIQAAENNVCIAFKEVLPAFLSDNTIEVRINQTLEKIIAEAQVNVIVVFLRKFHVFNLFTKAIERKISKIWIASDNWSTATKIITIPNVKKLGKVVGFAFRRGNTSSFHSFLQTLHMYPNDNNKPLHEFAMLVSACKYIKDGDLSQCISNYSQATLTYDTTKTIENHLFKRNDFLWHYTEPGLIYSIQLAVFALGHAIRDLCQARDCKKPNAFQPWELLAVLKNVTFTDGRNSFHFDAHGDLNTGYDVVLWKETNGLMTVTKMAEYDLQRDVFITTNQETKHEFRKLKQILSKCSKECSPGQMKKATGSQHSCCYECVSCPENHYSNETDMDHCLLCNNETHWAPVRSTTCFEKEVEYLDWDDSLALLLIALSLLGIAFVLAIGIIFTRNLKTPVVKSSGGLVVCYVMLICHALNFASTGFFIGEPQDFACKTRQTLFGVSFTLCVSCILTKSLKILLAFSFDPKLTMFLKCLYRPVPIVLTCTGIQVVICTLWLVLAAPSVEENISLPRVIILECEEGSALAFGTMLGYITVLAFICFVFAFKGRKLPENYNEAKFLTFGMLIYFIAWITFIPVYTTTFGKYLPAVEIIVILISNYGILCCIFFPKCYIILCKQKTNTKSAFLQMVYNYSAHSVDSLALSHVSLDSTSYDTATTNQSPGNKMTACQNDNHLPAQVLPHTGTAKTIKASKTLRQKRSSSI

`[Ca+2].[Cl-].[Cl-]` [Ca^2+, CaCl2] was tested, and the “IL-1β production, factor of increase in comparison to endotoxin (LPS) alone” value (primary CD14+ monocytes; extracellular ionized Ca2+ in combination with LPS) was 20.

With Aluminum Lactate the footpad swelling (GPRC6A) was “amplification of Carrageenan induced footpad swelling”.

In the case of “Tenascin: endogenous TLR ligand, extracellular matrix glycoprotein; Tenascin-C from Millipore”, the IL-1β production (primary CD14+ monocytes; endogenous TLR ligand in combination with increased extracellular Ca2+ concentrations) is reported as “comparable to the Ca^2+ plus LPS induced levels”.
